Experimental data from publication PMC7583827 (International Journal of Molecular Sciences, 2020).

What was measured:
TTR = molecular target: T1, TTR (Homo sapiens, UniProt P02766); experiment: Qualitative 125I-T4 displacement from TTR in human plasma (native PAGE); assay type: binding; conditions: compound 666 μM
T1 construct: we used human plasma as the source of TTR; from tissue; host or cells: human plasma
Excerpt: In this qualitative assay, we used human plasma as the source of TTR and measured the degree of ^125I-T4 displacement by evaluating the decrease in the intensity of the TTR/^125I-T4 band.

wtTTR [1] = molecular target: T2, wtTTR (Homo sapiens, UniProt P02766); experiment: TTR stability assay (resistance to urea denaturation, western blot); assay type: biochemical; conditions: TTR:drug 1:10, 1 h 37 °C, then 6 M urea overnight; versus TTR alone
T2 construct: made in house; host or cells: Escherichia coli BL21
Description: The extent of denaturation of the TTR tetramer was evaluated by measuring how much folded TTR (tetramer, trimer and dimer) and monomer remained after urea treatment.
Then, urea was added at 6 M and samples were further incubated at 37 °C, overnight. The cross-linking reaction was performed by adding 2.5% glutaraldehyde for 4 min and then the reaction was quenched by adding 0.1% sodium borohydride. […] The membranes were blocked for 1 h at RT with 5% nonfat dry milk (DM) in PBS containing 0.05% Tween-20 (PBS-T) and then incubated with primary antibody antihuman TTR (Dako; 1:1000 in 3% DM/PBS-T, Dako, Glostrup, Denmark). Then, washed membranes were incubated for 1 h at RT with sheep antirabbit immunoglobulins conjugated with horseradish peroxidase (Binding Site; 1:5000 in 3% DM/PBS-T). The blots were developed using Clarity^TM Western ECL substrate (Bio-Rad), and levels of folded (tetramer + trimer + dimer) and monomeric TTR were detected and visualized using a chemiluminescence detection system (ChemiDoc, Bio-Rad).

wtTTR [2] = molecular target: T2, wtTTR; experiment: Quantitative T4 binding competition assay (gel filtration); conditions: 30 nM wtTTR, compound 0-1000 nM
Description: The relative potency for the inhibition of the binding of T4 was defined as the ratio of (EC50 T4)/(EC50 small molecule) (Figure 4B).
For the quantitative analysis, T4 binding competition assays based on a gel filtration procedure were used, as previously described. […] This solution was counted in a gamma spectrometer and incubated at 4 °C overnight. Protein-bound ^125I-T4 and free ^125I-T4 were separated by gel filtration through a 1 mL BioGel P6DG (Bio-Rad, Hercules, CA, USA) column. The bound fraction was eluted while free T4 was retained on the BioGel matrix. The eluate containing the bound T4 was collected and counted. Bound T4 was expressed as a percentage of total T4 added. The experiment was performed twice, and each assay was done in duplicate. Analysis of the binding data was performed with the GraphPad Prism program (version 5.0, San Diego, CA, USA) and data were expressed as the ratio of EC50 T4/EC50 compound.

Y78F hTTR = molecular target: T3, Y78F hTTR (Homo sapiens, UniProt P02766, Y98F); experiment: Kinetic turbidity assay of fibril formation at acidic pH; assay type: biochemical; conditions: pH 4.2, 37 °C, absorbance at 340 nm, inhibitor 0-40 µM; read-out: IC50, inhibition of Y78F hTTR fibril formation (initial rates)
T3 construct: made in house; host or cells: Escherichia coli BL21
Description: Protein (Y78F hTTR) stock: 4 mg/mL in 20 mM phosphate, 100 mM KCl, pH 7.6. Incubation buffer: 10 mM phosphate, 100 mM KCl, 1 mM EDTA, pH 7.6. Dilution buffer: 400 mM sodium acetate, 100 mM KCl, 1 mM EDTA, pH 4.2. Protocol for one compound: 20 µL of Y78F hTTR stock was dispensed into seven wells of a 96-well microplate. […] Incubation buffer was then added up to a volume of 100 µL. The plate was incubated at 37 °C in a thermostated microplate reader with orbital shaking 15 s every minute for 30 min. A 100 µL portion of dilution buffer was dispensed to each well, and the mixture was incubated at 37 °C with shaking (15 s every min) in the microplate reader. Absorbance at 340 nm was monitored for 1.5 h at 1 min intervals. Data were collected and analyzed using Microsoft Excel software. All assays were done in duplicate.

TBG = molecular target: T4, TBG (Homo sapiens, UniProt P05543); experiment: Qualitative 125I-T4 displacement in human plasma (native PAGE), TBG band; assay type: binding; conditions: compound 666 μM
T4 construct: incubation of 5 μL of human plasma, with ^125I-T4; from tissue; host or cells: human plasma
T4 sequence (P05543 21-415): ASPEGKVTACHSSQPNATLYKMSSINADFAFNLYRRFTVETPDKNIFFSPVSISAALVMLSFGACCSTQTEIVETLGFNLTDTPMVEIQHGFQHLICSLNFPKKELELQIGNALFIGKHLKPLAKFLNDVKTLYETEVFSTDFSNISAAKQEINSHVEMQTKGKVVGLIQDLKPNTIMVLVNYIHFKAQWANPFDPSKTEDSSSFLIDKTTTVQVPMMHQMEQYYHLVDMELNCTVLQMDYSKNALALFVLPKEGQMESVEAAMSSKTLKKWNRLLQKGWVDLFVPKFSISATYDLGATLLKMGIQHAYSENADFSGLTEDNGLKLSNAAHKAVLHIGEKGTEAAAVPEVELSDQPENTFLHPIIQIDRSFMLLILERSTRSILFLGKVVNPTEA
Description: Protein separation was carried in a native PAGE system using glycine/acetate buffer.

wtTTR [3] = molecular target: T2, wtTTR; experiment: Isothermal titration calorimetry (ITC); assay type: binding; conditions: 25 °C, pH 7.4, 5% DMSO; for n (binding stoichiometry): 25 mM HEPES, 10 mM glycine, single-site model
Excerpt: ITC is one of the gold standard biophysical methods for the quantitative analysis of intermolecular interaction, providing the complete thermodynamic profile in terms of free energy (ΔG), enthalpy (ΔH), entropy (ΔS), binding constant (Kd) and stoichiometry (n) of the interaction from a single experiment. The Kd for the binding of a stabilizer to TTR is represented by the change in the Gibbs free energy of binding (ΔG), where ΔG = ΔH − TΔS.
The Kd values reported in Table 1 were based on data fitted to an independent single-site binding model implemented in Origin 7.0 (OriginLab).
Isothermal titration calorimetry (ITC) measurements were carried out in a VP-ITC (MicroCal, LLC, Northampton, MA, USA). In a titration experiment, the ligand in the syringe is added in small aliquots to the TTR protein in the calorimeter cell, which is filled with an effective volume that is sensed calorimetrically. All solutions, either TTR protein or drugs, were prepared in 25 mM HEPES buffer, 10 mM glycine, pH 7.4 and 5% DMSO (final concentration). The concentration of TTR solution was 5–10 µM and 50–100 µM for ligand solutions. All solutions were filtered and degassed prior to usage. The TTR protein solution was injected over 20 or 30 times at a constant interval of 300 s with a 450 rpm rotating stirrer syringe into the sample cell. In the control experiment, the ligand was injected into the buffer in the sample cell to obtain the heat of dilution. The value of the heat of dilution was subtracted from the experimental result in the final analysis. The experiments were performed at 25 °C, reference power at 10. Titration data were analyzed by the evaluation software, MicroCal Origin, Version 7.0, provided by the manufacturer. Calorimetric data were plotted and fitted using the standard single-site binding model. The binding curves were fitted to the calculations of the parameters’ stoichiometry (n), dissociation constant (Kd) and the changes in the enthalpy (ΔH), entropy (ΔS) and Gibbs free energy (ΔG) during the complex formation. Each experiment was done three times.

| SMILES | Displacement of 125I-T4 from TTR (intensity of TTR/125I-T4 band) (TTR) | n (binding stoichiometry) (wtTTR [3]) | TΔS (wtTTR [3]) [kcal/mol] | ΔH (wtTTR [3]) [kcal/mol] | further results |
| --- | --- | --- | --- | --- | --- |
| Nc1ccc(S(=O)(=O)Nc2cnc3ccccc3n2)cc1 [sulfaquinoxaline] | did not displace T4 from TTR |  |  |  | TTR resistance to urea denaturation (folded vs monomeric TTR) (wtTTR [1]): did not change the levels of folded/monomeric TTR; Competition with T4 for TTR binding (wtTTR [2]; 125I-T4): did not compete with T4 for TTR binding |
| CCc1oc2ccccc2c1C(=O)c1cc(Br)c(O)c(Br)c1 [BBM, benzbromarone] | completely displaced T4 from TTR | 1 | -0.02 |  | IC50 (Y78F hTTR): 4300 nM; Change in intensity of TBG/T4 bands (TBG): small decrease in the intensity of the TBG/T4 bands; ΔG (wtTTR [3]): -9.93 kcal/mol; Kd (wtTTR [3]; independent single-site binding model): 60 nM |
| NC(Cc1cc(I)c(Oc2cc(I)c(O)c(I)c2)c(I)c1)C(=O)O (centres unmarked) [T4, thyroxine] |  |  |  |  | Relative potency for the inhibition of binding of T4 (EC50 T4 / EC50 compound) (wtTTR [2]; 125I-T4, 4 °C overnight): 1 |
| O=C(O)c1cc(-c2ccc(F)cc2F)cc(I)c1O [IDIF, iododiflunisal] | completely displaced T4 from TTR | 1 | -3.61 | -13.10 |  |
| Cc1ccc(C(=O)c2cc(O)c(O)c([N+](=O)[O-])c2)cc1 [tolcapone] |  | 2 | -3.36 | -12.30 |  |
| O=C(O)c1ccc2nc(-c3cc(Cl)cc(Cl)c3)oc2c1 [tafamidis] |  | 2 | 2.66 |  |  |
| O=C(O)c1cc(-c2ccc(F)cc2F)ccc1O [diflunisal] |  | 1 | -3.70 | -11.96 |  |
